Reference: US8796268B2, “Heteroaryls and uses thereof” (Millennium Pharmaceuticals, Inc., priority 2010, dated 2014)

Experiments:
[1] = biological target: T1, Human PI3K alpha (Homo sapiens, UniProt P42336); experiment: Human PI3K alpha enzyme assay (HTRF); type: biochemical; conditions: read-out: PI3Kalpha IC50
T1 construct: His (N); host or cells: SF9 insect cells (baculovirus)
Excerpt: (§1) The catalytic subunits of PI3Ks are cloned into either pDEST8(p110 alpha) or pDEST10(p110beta, p110delta, and p110gamma) as N-terminal His tagged fusion proteins using the Gateway system (Invitrogen, catalog#11804-010 for pDEST8 and 11806-015 for pDEST10). The sequences are verified before recombinant protein expression using the Baculovirus Expression System with Gateway® Technology. The accession numbers for the subunits are as follows: • p110 alpha (GB:U79143) • p110beta (GB: S67334) • p110delta (GB: U86453) • p110gamma (GB: X83368) • The regulatory subunits of PI3Ks are cloned into pDEST8 as un-tagged protein using the Gateway system (Catalog#11804-010). The sequences are verified before recombinant protein expression using the Baculovirus Expression System with Gateway® Technology. The accession numbers for the subunits are as following: • p85 alpha (GB: BC030815) • p101(GB: AB028925) • VPS34 (accession number GB:BC033004) is cloned into pDEST20—Thombin as N-terminal GST tagged fusion proteins using the Gateway system (Invitrogen, catalog#11804-013). The sequences are verified before recombinant protein expression using the Baculovirus Expression System with Gateway® Technology.
(§2) For expression of the p110 complexes, the p85 (MOI of 4) is co-infected with p110 alpha, beta, and delta respectively (1MOI) in SF9 cells and harvested at 60 hours post co-infection. P110 gamma was infected at 1 MOI and harvested at 60 hours post infection.
(§3) For purification, PI3Ks are purified by Ni-NTA Agarose (Qiagen #30250) followed by Mono Q 10/100 GL (Ge Healthcare #17-5167-01). VPS34 is purified by Glutathione Sepharose 4 Fast Flow (GE Healthcare #17-5132-03) followed by HiTrap Q (GE Healthcare #17-1153-01).
1) Human PI3K alpha enzyme assay method
(§4) 0.5 uL compounds in DMSO are added to wells of a 384 well microtitre plate (Corning 3575). At room temperature: 10 ul PI3K reaction buffer (50 mM Hepes, 5 mM DTT, 150 mM NaCl, 10 mM beta-glycerophosphate, 10 mM MgCl2, 0.25 mM sodium cholate and 0.001% CHAPS, pH 7.00) containing ATP (25 uM, Promega) is added followed immediately by 10 ul PI3K reaction buffer containing di-C8 P1(4,5)P2 (3.5 uM, CellSignals) and PI3Kalpha (0.4875 nM, Millennium Protein Sciences Group) and the mixture is incubated with shaking at room temperature for 30 minutes. Then 5 ul PI3K stop mix (50 mM Hepes, 5 mM DTT, 150 mM NaCl, 0.01% Tween-20, 15 mM EDTA and 25 nM biotin-PI(3,4,5)P3 (Echelon) is added to quench the reaction followed immediately by addition of 5 ul HTRF detection mix (50 mM Hepes, 5 mM DTT, 150 mM NaCl, 0.01% Tween-20, 40 mM KF, 1.0 nM GST:GRP-1 PH domain (Millennium Protein Sciences Group), 15 nM Streptavidin-XL (CisBio) and 0.375 nM anti-GST Eu++ antibody (CisBio) at pH 7.00). The plates are then incubated for 1 hour at room temperature with shaking and then read on a BMG PheraStar Plus reader.
(§5) For the assay methods described above, test compound percent inhibition, at various concentrations, is calculated relative to control (DMSO and EDTA) treated samples. Compound concentration versus percent inhibition curves are fitted to generate IC50 values. One skilled in the art will appreciate that the values generated either as percentage inhibition at a single concentration or IC50 values are subject to experimental variation.

[2] = biological target: T2, Human PI3K beta (Homo sapiens, UniProt P42338); experiment: Human PI3K beta enzyme assay (HTRF); type: biochemical; conditions: read-out: PI3 Kbeta IC50
T2 construct: His (N); host or cells: SF9 insect cells (baculovirus)
Excerpt: as §1, §2, §3, §4
2) Human PI3K beta, delta and gamma isoforms are tested using the procedure described for PI3K alpha above but with the following changes: PI3K beta (5.25 nM), PI3K delta (0.75 nM) and PI3K gamma (5 nM). All isoforms supplied by Millennium Protein Science Group.
as §5

T1 sequence (P42336 whole entry): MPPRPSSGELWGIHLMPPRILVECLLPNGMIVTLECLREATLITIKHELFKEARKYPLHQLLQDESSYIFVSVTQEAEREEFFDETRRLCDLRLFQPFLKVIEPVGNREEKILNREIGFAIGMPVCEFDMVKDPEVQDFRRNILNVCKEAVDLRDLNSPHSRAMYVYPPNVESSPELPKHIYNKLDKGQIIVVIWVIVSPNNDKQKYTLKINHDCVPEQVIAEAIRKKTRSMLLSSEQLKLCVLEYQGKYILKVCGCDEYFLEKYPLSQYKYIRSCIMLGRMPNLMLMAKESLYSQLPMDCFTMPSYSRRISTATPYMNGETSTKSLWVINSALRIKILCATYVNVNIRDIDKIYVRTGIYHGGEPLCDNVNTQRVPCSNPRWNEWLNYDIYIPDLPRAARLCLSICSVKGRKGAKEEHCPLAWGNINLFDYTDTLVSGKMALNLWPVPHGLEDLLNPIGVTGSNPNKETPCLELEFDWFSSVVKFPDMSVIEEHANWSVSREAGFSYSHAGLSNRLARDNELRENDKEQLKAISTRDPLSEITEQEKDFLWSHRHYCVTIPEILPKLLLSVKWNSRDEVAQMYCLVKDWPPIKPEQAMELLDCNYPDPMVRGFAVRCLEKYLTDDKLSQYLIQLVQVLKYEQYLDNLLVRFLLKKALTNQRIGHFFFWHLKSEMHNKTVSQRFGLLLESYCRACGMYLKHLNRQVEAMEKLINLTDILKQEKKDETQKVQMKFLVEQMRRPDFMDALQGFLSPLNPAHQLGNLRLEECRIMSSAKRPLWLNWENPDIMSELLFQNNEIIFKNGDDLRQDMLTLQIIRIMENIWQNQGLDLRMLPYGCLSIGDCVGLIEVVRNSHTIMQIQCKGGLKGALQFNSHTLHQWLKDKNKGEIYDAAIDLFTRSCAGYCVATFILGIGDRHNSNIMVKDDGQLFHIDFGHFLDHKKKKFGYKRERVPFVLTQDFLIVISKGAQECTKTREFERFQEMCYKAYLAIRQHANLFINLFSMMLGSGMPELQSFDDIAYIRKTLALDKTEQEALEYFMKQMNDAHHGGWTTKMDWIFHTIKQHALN
T1 sequence (P27986 whole entry partner): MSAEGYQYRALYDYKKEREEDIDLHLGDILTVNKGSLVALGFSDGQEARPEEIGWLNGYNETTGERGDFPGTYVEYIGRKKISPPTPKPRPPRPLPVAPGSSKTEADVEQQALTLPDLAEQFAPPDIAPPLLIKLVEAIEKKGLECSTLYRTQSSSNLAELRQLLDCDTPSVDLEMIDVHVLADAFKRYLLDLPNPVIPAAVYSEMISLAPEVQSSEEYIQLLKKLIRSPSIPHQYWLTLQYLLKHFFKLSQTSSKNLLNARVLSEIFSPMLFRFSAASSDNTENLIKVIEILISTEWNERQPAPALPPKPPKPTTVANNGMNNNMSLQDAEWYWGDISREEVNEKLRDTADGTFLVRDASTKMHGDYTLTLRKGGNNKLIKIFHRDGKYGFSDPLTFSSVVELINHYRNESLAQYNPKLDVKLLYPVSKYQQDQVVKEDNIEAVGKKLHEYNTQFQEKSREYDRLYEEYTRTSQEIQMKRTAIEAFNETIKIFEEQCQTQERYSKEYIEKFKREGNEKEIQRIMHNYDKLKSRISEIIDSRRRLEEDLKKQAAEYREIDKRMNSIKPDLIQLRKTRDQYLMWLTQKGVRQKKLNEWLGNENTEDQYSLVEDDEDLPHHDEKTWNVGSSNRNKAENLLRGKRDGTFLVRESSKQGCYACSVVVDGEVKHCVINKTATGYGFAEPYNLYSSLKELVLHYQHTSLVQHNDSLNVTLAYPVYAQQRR
T2 sequence (P42338 whole entry): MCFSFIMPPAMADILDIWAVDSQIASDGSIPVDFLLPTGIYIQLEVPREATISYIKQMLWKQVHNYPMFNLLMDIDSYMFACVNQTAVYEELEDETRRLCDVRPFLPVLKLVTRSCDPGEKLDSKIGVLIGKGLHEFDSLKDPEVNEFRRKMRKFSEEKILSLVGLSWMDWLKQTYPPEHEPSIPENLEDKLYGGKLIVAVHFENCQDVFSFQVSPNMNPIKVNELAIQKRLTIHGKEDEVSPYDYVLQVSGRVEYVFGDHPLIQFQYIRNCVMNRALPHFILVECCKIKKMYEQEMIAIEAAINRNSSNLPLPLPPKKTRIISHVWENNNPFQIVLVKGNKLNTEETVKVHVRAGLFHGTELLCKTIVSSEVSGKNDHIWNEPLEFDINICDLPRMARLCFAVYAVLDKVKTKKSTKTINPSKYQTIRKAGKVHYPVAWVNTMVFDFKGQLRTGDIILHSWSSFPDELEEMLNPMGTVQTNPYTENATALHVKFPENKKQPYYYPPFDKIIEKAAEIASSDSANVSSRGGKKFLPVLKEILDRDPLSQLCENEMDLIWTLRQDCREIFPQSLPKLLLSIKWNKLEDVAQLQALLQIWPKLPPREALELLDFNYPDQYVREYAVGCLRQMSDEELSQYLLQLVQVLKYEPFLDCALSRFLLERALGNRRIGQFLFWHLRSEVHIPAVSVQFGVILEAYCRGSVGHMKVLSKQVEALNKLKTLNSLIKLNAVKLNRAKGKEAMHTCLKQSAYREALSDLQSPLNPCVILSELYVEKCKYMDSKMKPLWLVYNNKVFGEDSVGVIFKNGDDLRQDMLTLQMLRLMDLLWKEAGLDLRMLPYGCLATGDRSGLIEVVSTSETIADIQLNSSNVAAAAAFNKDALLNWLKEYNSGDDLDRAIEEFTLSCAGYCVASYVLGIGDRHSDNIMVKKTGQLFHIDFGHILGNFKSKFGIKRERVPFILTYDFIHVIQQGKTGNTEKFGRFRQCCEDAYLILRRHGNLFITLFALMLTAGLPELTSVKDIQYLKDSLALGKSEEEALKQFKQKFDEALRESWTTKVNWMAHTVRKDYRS
T2 sequence (P27986 whole entry partner): as the sequence (P27986 whole entry partner) above

SMILES	IC50 [1] [nM]	IC50 [2] [nM]
COc1ccc(C(O)c2cc(-c3ccncc3)sc2-c2nnc[nH]2)cc1 (stereo not shown) [Compound 85, (4-methoxyphenyl)[5-pyridin-4-yl-2-(4H-1,2,4-triazol-3-yl)-3-thienyl]methanol]	> 1000	< 100
Clc1ccc(Cc2nc(-c3ccncc3)sc2-c2ncc[nH]2)cc1 [Compound 15, 4-(4-chlorobenzyl)-5-(1H-imidazol-2-yl)-2-(pyridin-4-yl)thiazole]	> 1000	100 to 1000
Nc1cc(-c2nc(Cc3ccc(Cl)cc3)c(-c3ncn[nH]3)s2)ccn1 [Compound 27]	> 1000	100 to 1000
Cc1noc(C)c1-c1nc(Cc2ccc(Cl)cc2)c(-c2nnc[nH]2)s1 [Compound 46]	> 1000	100 to 1000
Fc1cc(-c2nc(Cc3ccc(Cl)cc3)c(-c3nnc[nH]3)s2)ccn1 [Compound 37]	> 1000	100 to 1000
Cc1nn2ccc(CN(CCN)Cc3ccncc3)cc2c1-c1nc(Cc2ccc(Cl)cc2)c(-c2nnc[nH]2)s1 [Compound 31]	100 to 1000	< 100
OC(c1ccc(Cl)cc1)c1cc(-c2ccnc3ccsc23)sc1-c1nnc[nH]1 (stereo not shown) [Compound 13]	< 100	< 100
Cc1nn2ccc(CN3CCNCC3)cc2c1-c1nc(Cc2ccc(Cl)cc2)c(-c2nnc[nH]2)s1 [Compound 72, 3-[4-(4-chlorobenzyl)-5-(4H-1,2,4-triazol-3-yl)-1,3-thiazol-2-yl]-2-methyl-5-(piperazin-1-ylmethyl)pyrazolo[1,5-a]pyridine]	100 to 1000	100 to 1000
OC(c1ccc(Cl)cc1)c1cc(-c2ccnc3sccc23)sc1-c1nnc[nH]1 (stereo not shown) [Compound 57]	100 to 1000	100 to 1000
OC(c1ccc(Cl)cc1)c1cc(-c2ccncc2Cl)sc1-c1nc[nH]n1 (stereo not shown) [Compound 25]	> 1000	100 to 1000
Clc1ccc(C(c2cc(-c3ccncc3)sc2-c2nnc[nH]2)N2CCC2)cc1 (stereo not shown) [Compound 51]	> 1000	< 100
CC(=O)Nc1cc(-c2nc(Cc3ccccc3)c(-c3ncc[nH]3)s2)ccn1 [Compound 2, N-{4-[4-benzyl-5-(1H-imidazol-2-yl)-1,3-thiazol-2-yl]pyridin-2-yl}acetamide]	> 1000	> 1000
Cc1nn2ccc(CNCCN)cc2c1-c1nc(Cc2ccc(Cl)cc2)c(-c2nnc[nH]2)s1 [Compound 54]	100 to 1000	100 to 1000
CC(C)NC(c1ccc(Cl)cc1)c1cc(-c2ccncc2)sc1-c1nnc[nH]1 (stereo not shown) [Compound 33]	> 1000	100 to 1000
Fc1cnccc1-c1nc(Cc2ccc(Cl)cc2)c(-c2nc[nH]n2)s1 [Compound 78]	> 1000	> 1000
O[C@@H](c1ccc(Cl)cc1)c1cc(-c2ccncc2)sc1-c1nnc[nH]1 [Compound 84]	> 1000	100 to 1000
N#Cc1c(-c2ccnnc2)sc(-c2nnc[nH]2)c1Cc1ccc2ccccc2c1 [Compound 88, 4-(2-naphthylmethyl)-2-pyridazin-4-yl-5-(4H-1,2,4-triazol-3-yl)thiophene-3-carbonitrile]	> 1000	< 100
COc1cc(-c2cc(C(O)c3ccc(Cl)cc3)c(-c3nnc[nH]3)s2)ccn1 (stereo not shown) [Compound 17]	> 1000	100 to 1000
N#Cc1c(-c2ccnc(N)c2)sc(-c2nnc[nH]2)c1Cc1ccc(Cl)cc1 [Compound 12, 2-(2-aminopyridin-4-yl)-4-(4-chlorobenzyl)-5-(4H-1,2,4-triazol-3-yl)thiophene-3-carbonitrile]	> 1000	100 to 1000

SMILES	IC50 [1] [nM]	IC50 [2] [nM]
Cc1noc(C)c1-c1cc(C(O)c2ccc(Cl)cc2)c(-c2nnc[nH]2)s1 (stereo not shown) [Compound 34]	> 1000	100 to 1000
Cc1nn2ccc(CNCc3ccccc3)cc2c1-c1nc(Cc2ccc(Cl)cc2)c(-c2nnc[nH]2)s1 [Compound 32]	100 to 1000	100 to 1000
Cc1cc(-c2nc(Cc3ccc(Cl)cc3)c(-c3nc[nH]n3)s2)ccn1 [Compound 18, 4-(4-Chlorobenzyl)-2-(2-methylpyridin-4-yl)-5-(4H-1,2,4-triazol-3-yl)thiazole]	> 1000	> 1000
N#Cc1cc(-c2cc([C@@H](O)c3ccc(Cl)cc3)c(-c3nnc[nH]3)s2)ccn1 [Compound 48]	100 to 1000	100 to 1000
Cc1nn2ccc(CN(CCN)Cc3ccccc3)cc2c1-c1nc(Cc2ccc(Cl)cc2)c(-c2nnc[nH]2)s1 [Compound 83]	100 to 1000	100 to 1000
Cc1nn2ccc(CNCCCN)cc2c1-c1nc(Cc2ccc(Cl)cc2)c(-c2nnc[nH]2)s1 [Compound 38]	100 to 1000	100 to 1000
CN1CCc2cc(Cl)ccc2C1c1cc(-c2ccncc2)sc1-c1ccn[nH]1 (stereo not shown) [Compound 58, 6-Chloro-2-methyl-1-[2-(1H-pyrazol-5-yl)-5-pyridin-4-yl-3-thienyl]-1,2,3,4-tetrahydroisoquinoline]	> 1000	100 to 1000
N#Cc1cc(-c2cc([C@H](O)c3ccc(Cl)cc3)c(-c3nnc[nH]3)s2)ccn1 [Compound 3]	> 1000	< 100
O[C@H](c1ccc(Cl)cc1)c1nc(-c2ccncc2)sc1-c1nnc[nH]1 (single isomer, unassigned) [Compound 19, (4-chlorophenyl)[2-pyridin-4-yl-5-(1H-1,2,4-triazol-3-yl)-1,3-thiazol-4-yl]methanol]	> 1000	< 100
Cc1cc(-c2cc([C@H](O)c3ccc(Cl)cc3)c(-c3nnc[nH]3)s2)ccn1 [Compound 43]	> 1000	< 100
COC(c1ccc(Cl)cc1)c1cc(-c2ccncc2)sc1-c1nnc[nH]1 (stereo not shown) [Compound 6, 4-[4-[(4-chlorophenyl)(methoxy)methyl]-5-(4H-1,2,4-triazol-3-yl)-2-thienyl]pyridine]	> 1000	100 to 1000
Clc1ccc(Cc2nc(-c3ccncc3)sc2-c2nnc[nH]2)cc1Cl [Compound 7]	> 1000	< 100
CC(=O)Nc1cc(-c2nc(Cc3ccccc3Cl)c(-c3ncc[nH]3)s2)ccn1 [Compound 67]	100 to 1000	> 1000
CNc1cc(-c2nc(Cc3ccc(Cl)cc3)c(-c3nnc[nH]3)s2)ccn1 [Compound 63]	> 1000	> 1000
N#Cc1cc(-c2cc(C(O)c3ccc(Cl)cc3)c(-c3nnc[nH]3)s2)ccn1 (stereo not shown) [Compound 81, 4-(4-((4-chlorophenyl)(hydroxy)methyl)-5-(4H-1,2,4-triazol-3-yl)thiophen-2-yl)picolinonitrile]	> 1000	< 100
COc1ccc(CNCc2ccn3nc(C)c(-c4nc(Cc5ccc(Cl)cc5)c(-c5nnc[nH]5)s4)c3c2)c(OC)c1 [Compound 20]	100 to 1000	< 100
O[C@H](c1ccc(Cl)cc1)c1cc(-c2ccnc(Cl)c2)sc1-c1nnc[nH]1 [Compound 30]	100 to 1000	< 100
Clc1ccc(Cc2cc(-c3ccncc3)sc2-c2nnc[nH]2)cc1 [Compound 5, 4-[4-(4-chlorobenzyl)-5-(4H-1,2,4-triazol-3-yl)-2-thienyl]pyridine]	> 1000	< 100
c1ccc2cc(Cc3nc(-c4ccncc4)sc3-c3nnc[nH]3)ccc2c1 [Compound 87]	> 1000	< 100
